According to US9133235B2, “Macrocyclic antagonists of the motilin receptor for treatment of gastrointestinal dysmotility disorders” (Ocera Therapeutics, Inc., priority 2006, dated 2015):
Where two headings read alike, the source gives them in different places.

Columns and labels:
[1] = test system: Caco-2 cells; assay: Caco-2 permeability; format: in vitro ADME, human
Text: H. Determination of Caco-2 Permeability
The Caco-2 cell line, derived from a human colorectal carcinoma, has become an established in vitro model for the prediction of drug absorption across the human intestine. (Sun, D.; Yu, L. X.; Hussain, M. A.; Wall, D. A.; Smith, R. L.; Amidon, G. L. Curr. Opin. Drug Discov. Devel. 2004, 7, 75-85; Bergstrom, C. A. Basic Clin. Pharmacol. Toxicol. 2005, 96, 156-61; Balimane, P. V.; Han, Y. H.; Chong, S. AAPS J 2006, 8, E1-13; Shah, P.; Jogani, V.; Bagchi, T.; Misra, A. Biotechnol. Prog. 2006, 22, 186-198) When cultured on semi-permeable membranes, Caco-2 cells differentiate into a highly functionalized epithelial barrier with remarkable morphological and biochemical similarity to the small intestinal columnar epithelium. Fully differentiated cell monolayers can be used to assess the membrane transport properties of novel compounds.
Permeability across the Caco-2 cell layer was determined by growing the cells on a membrane placed between two (donor and acceptor) chambers. Drug candidates are typically added to the apical (A) side of the cell layer and their appearance in the basolateral (B) side is measured over incubation time. Permeability in this direction represents intestinal absorption. Permeability may also be determined from the basolateral to the apical side of the Caco-2 cell. […]
Permeability (10 μM) for compounds of the invention in the apical to basolateral and basolateral to apical direction were tested in duplicate. Samples will be collected from the donor and acceptor chambers at the beginning (0 min) and following 60 min of incubation at 37° C. and stored frozen at −70° C. until bioanalysis. Samples for each test compound generated from the Caco-2 permeability assay were further analyzed by LC-MS-MS. The permeability of [^3H]-mannitol and [^3H]-propranolol were determined in parallel as controls.
The permeability coefficient (Papp) of each compound and radiolabeled standard was determined using the following equation:
[formula] where dQ/dT represents the permeability rate, Ci denotes the initial concentration in the donor compartment, and A represents the surface area of the filter. Ci is determined from the mean concentration of duplicate samples taken prior to addition to the donor compartment. Permeability rates were calculated by plotting the cumulative amount of compound measured in the acceptor compartment over time and determining the slope of the line by linear regression analysis. The duplicate and mean apical to basolateral and basolateral to apical Papp's were reported for each compound and standard.

[2] = Plasma concentrations of compound 552 in beagle dogs during the CID study; format: in vivo; conditions: male, dog, iv; for AUC(0-t): read-out: average AUC0-t (converted)
Method: The test article No. 2 (compound 552) was intravenously infused via an implanted catheter over 45 minutes to all the animals in Group 4 four days before the start of TA1 (irinotecan) treatment and throughout the 28-day study period. […] The daily dosage (i.e. 5.0, 15.0 and 5.0 mg/kg/day for Groups 2 to 4 respectively) was administered by two equal doses (i.e. 2.5, 7.5 and 2.5 mg/kg/occasion for Groups 2 to 4 respectively) which were separate by at least 6 h. Each dose was infused at a dose volume of 10 mL/kg/h. The vehicle for compound 552 was administered to all dogs in Group 5 by following the same dosing procedures and regimen for compound 552 administration for 23 days (from Day 6 to Day 28). The actual volume infused was calculated and adjusted based on the most recent practical body weight of each animal. The syringes/bags were changed at appropriate intervals as necessary and the weights recorded prior to the start and at the end of the infusion.
Body weights were recorded for all animals once prior to group assignment, and approximately one week prior to initiation of treatment. Body weights were recorded for all animals up to 1 day prior to dosing and twice weekly thereafter during the treatment/observation periods, as well as terminally prior to necropsy (fasted). Food consumption was measured daily during the week prior to treatment and throughout the treatment/observation periods. A series of blood samples (approximately 2.0 mL each) were removed from each dog in Groups 2 and 3 after the first (am) infusion on the first day of treatment with compound 552 and after the second (pm) infusion on the last day of treatment with compound 552. (Note: the second (pm) infusion on the first day of treatment with compound 552 was performed after completion of the last blood sampling). For this purpose, each dog was bled by venipuncture and the samples collected into tubes containing the anticoagulant, K2 EDTA. Tubes were placed on wet ice pending processing. On each occasion, samples were collected prior to the start of infusion, 5, 15, 30, 45, 50, 65, 95, 135 minutes, 3 and 6 hours after the start of infusion of compound 552. Following collection, the samples were centrifuged at approximately 1500×g, approximately 4° C., for at least 10 minutes and the resulting plasma recovered and dispensed into two aliquots and stored frozen (at approximately −80° C.) pending shipment.
Plasma concentrations of compound 552 in male beagle dogs receiving low and high intravenous doses of compound 552 as part of the above experiment were determined. Plasma samples were prepared for analysis by solid phase extraction and analyzed by LC-MS/MS. […] The average AUC0-t was similar on the first (78,233 ng·min/mL) and last day (83,047 ng·min/mL) of dosing for the low dose group (2.5 mg/kg/occasion) and was proportionally higher on the first day (246,073 ng·min/mL) of dosing for the high dose group (7.5 mg/kg/occasion).

| Compound | Papp A to B ([1]; 10 μM, apical to basolateral, 60 min, 37° C.) | Papp B to A ([1]; 10 μM, basolateral to apical, 60 min, 37° C.) | B to A/A to B ([1]; ratio of Papp) | Cmax ([2]; 2.5 mg/kg, 2.5 mg/kg 45-min infusion, first day of treatment) | Cmax ([2]; 2.5 mg/kg, 2.5 mg/kg 45-min infusion, last day of treatment) | AUC(0-t) ([2]; 2.5 mg/kg, low dose group 2.5 mg/kg/occasion, first day) | AUC(0-t) ([2]; 2.5 mg/kg, low dose group 2.5 mg/kg/occasion, last day) | Cmax ([2]; 7.5 mg/kg, 7.5 mg/kg 45-min infusion, first day of treatment) | Cmax ([2]; 7.5 mg/kg, 7.5 mg/kg 45-min infusion, last day of treatment) | AUC(0-t) ([2]; 7.5 mg/kg, high dose group 7.5 mg/kg/occasion, first day) | AUC(0-t) ([2]; 7.5 mg/kg, high dose group 7.5 mg/kg/occasion, last day, one animal with particularly high AUC) |
| --- | --- | --- | --- | --- | --- | --- | --- | --- | --- | --- | --- |
| CC(C)[C@H]1NC(=O)[C@@H](Cc2cccc(C(F)(F)F)c2)NCCOc2ccccc2CCCNC(=O)[C@H](CN(C)C)NC1=O [Compound 502] | 5 cm/sec × 10^−6 | 11 cm/sec × 10^−6 | 2 | – | – | – | – | – | – | – | – |
| CCC[C@@H]1NC(=O)[C@@H](C(C)C)NC(=O)[C@@H](Cc2ccc(O)c(Cl)c2)N[C@@H](C)COc2ccccc2CCCNC1=O [Compound 552] | – | – | – | ~1500 ng/mL | ~1800 ng/mL | 1300 ng·h/mL | 1380 ng·h/mL | ~3400 ng/mL | ~5000 ng/mL | 4100 ng·h/mL | 6350 ng·h/mL |
